Results: patent publication US11639912B2, “Sensor and concentration measurement method” (PHC Holdings Corporation, priority 2009, dated 2023)
Values after ≈ are worked out from the molar mass of the structure shown. Like-named read-outs stand apart in the source and are kept apart here.

Assays:
[1] = Redox / oxidation potentials stated in the description without method; format: physicochemical; details: no method given
[2] = Solubility of mediator in water, evaluated visually; format: physicochemical; details: for solubility: thermodynamic from solid, Table 1, water at 25° C., evaluated visually
Protocol: Potassium ferricyanide, 9,10-phenanthrenequinone, and sodium 9,10-phenanthrene-quinone-2-sulfonate were weighed out, and water was added to them. The solubility in water at 25° C. was evaluated visually.

[3] = background statement, cited from earlier work
[4] = Redox potential by cyclic voltammetry (glassy carbon working electrode, Ag|AgCl reference); format: physicochemical; details: for Eox (V), potential value at the peak oxidation current / Ered (V), potential value at the peak reduction current: 1 mM in 100 mM phosphate buffer pH 7, sweep 0.1 V/second; for E0′ (V) [(Ered + Eox)/2], redox potential: average of Ered and Eox
Protocol: Potassium ferricyanide and sodium 9,10-phenanthrenequinone-2-sulfonate were each dissolved in an amount of 1 mM in a 100 mM phosphate buffer (pH 7), to prepare a potassium ferricyanide aqueous solution and a sodium 9,10-phenanthrenequinone-2-sulfonate aqueous solution.
These aqueous solutions were used to measure the redox potential by cyclic voltammetry for potassium ferricyanide and sodium 9,10-phenanthrenequinone-2-sulfonate. More specifically, the electrodes used here were as follows. • working electrode: glassy carbon electrode • counter electrode: platinum wire • reference electrode: silver/silver chloride (saturated potassium chloride) electrode (hereinafter referred to as Ag|AgCl).
A potentiostat was used for measurement. The various electrodes and the potentiostat were types commonly used in electrochemistry. This equipment can be purchased from BAS, for example.
The cyclic voltammetry involved searching for the potential applied to the working electrode, linearly with respect to time. The sweep rate was set to 0.1 V/second. First, a first potential was applied to the working electrode, and the electrode potential was swept to the negative side from the starting potential to a second potential that was more negative. Then, sweep was performed in which the electrode potential was flipped back to the positive side from the second potential to the first potential.
The first and second potentials were 0.7 V and −0.3 V, respectively, in the case of potassium ferricyanide, and were 0.2 V and −0.5 V in the case of sodium 9,10-phenanthrenequinone-2-sulfonate.
The potential discussed next is the potential with respect to Ag|AgCl.
If we calculate the redox potential as the average value [(Ered+Eox)/2] of the potential value at the peak oxidation current (Eox) and the potential value at the peak reduction current (Ered), the redox potential for the sodium 9,10-phenanthrenequinone-2-sulfonate is −150 mV and the redox potential for potassium ferricyanide is 225 mV. Thus, the redox potential for sodium 9,10-phenanthrenequinone-2-sulfonate measured using Ag|AgCl as a reference electrode was negative.
Also, compounds A, B, H′, I, I′, and J and disodium 9,10-phenanthrenequinone-2,7-disulfonate were subjected to cyclic voltammetry by the same operation as in FIG. 4. […]

[5] = FIG. 4, vs Ag|AgCl, 100 mM phosphate buffer pH 7

SMILES	Solubility in water ([2]; Table 2)	Eox (V), potential value at the peak oxidation current ([4]; vs Ag|AgCl) [V]	Ered (V), potential value at the peak reduction current ([4]; vs Ag|AgCl) [V]	E0′ (V) [(Ered + Eox)/2], redox potential ([4]; vs Ag|AgCl) [V]	further results
O=C1C=C(S(=O)(=O)O)c2ccccc2C1=O [1,2-naphthoquinone-4-sulfonic acid]					redox potential of mediators pertaining to the invention [1]: −16 mV
O=C1C(=O)c2cc(S(=O)(=O)O)ccc2-c2ccccc21 [9,10-phenanthrenequinone-2-sulfonic acid]					redox potential of mediators pertaining to the invention [1]: −140 mV
O=C1C(=O)c2ccccc2-c2ccccc21 [9,10-phenanthrenequinone]					solubility [2]: < 1 mM; redox potential of mediators pertaining to the invention [1]: −180 mV
Cc1cc2nc3c(=O)[nH]c(=O)nc-3n(C[C@H](O)[C@H](O)[C@H](O)COP(=O)(O)OP(=O)(O)OC[C@H]3O[C@@H](n4cnc5c(N)ncnc54)[C@H](O)[C@@H]3O)c2cc1C [FAD, flavin adenine dinucleotide]					redox potential of coenzymes and prior-art mediator [3]: approximately −300 mV
O=C(O)c1cc(C(=O)O)c2c(n1)C(=O)C(=O)c1cc(C(=O)O)[nH]c1-2 [PQQ, pyrroloquinoline quinone]					redox potential of coenzymes and prior-art mediator [3]: approximately −200 mV
O=C1O[C@H]([C@@H](O)CO)C(O)=C1O [ascorbic acid]					oxidation potential ([3]; vs. Ag|AgCl): approximately −140 mV
O=C1C(=O)c2cc([N+](=O)[O-])ccc2-c2ccccc21 [compound A]	1 mM (≈ 253 µg/mL)	−0.10	−0.13	−0.12	
Nc1ccc2c(c1)C(=O)C(=O)c1ccccc1-2 [compound B]		−0.19	−0.23	−0.21	Solubility in water [2]: 1 mM (≈ 223 µg/mL)
O=C1C(=O)c2cc(-c3ccc(S(=O)(=O)[O-])cc3)ccc2-c2ccccc21.[Na+] [compound H′]	20 mM	−0.14	−0.21	−0.18	
O=C([O-])c1ccc(-c2ccc3c(c2)C(=O)C(=O)c2ccccc2-3)cc1.[Na+] [compound I]	5 mM	−0.14	−0.22	−0.18	
O=C(NCCS(=O)(=O)[O-])c1ccc(-c2ccc3c(c2)C(=O)C(=O)c2ccccc2-3)cc1.[Na+] [compound I′]	20 mM	−0.14	−0.22	−0.18	
O=C([O-])c1cc(C(=O)[O-])cc(-c2ccc3c(c2)C(=O)C(=O)c2ccccc2-3)c1.[Na+].[Na+] [compound J]	50 mM	−0.15	−0.23	−0.19	
O=C1C(=O)c2cc(S(=O)(=O)[O-])ccc2-c2ccc(S(=O)(=O)[O-])cc21.[Na+].[Na+] [disodium 9,10-phenanthrenequinone-2,7-disulfonate]	over 200 mM	−0.06	−0.18	−0.12	
O=C1C(=O)c2cccnc2-c2ncccc21 [phenanthroline quinone]					redox potential of coenzymes and prior-art mediator [3]: approximately 0 mV
O=C1C(=O)c2cc(S(=O)(=O)[O-])ccc2-c2ccccc21.[Na+] [sodium 9,10-phenanthrenequinone-2-sulfonate]		−0.12	−0.18	−0.15	Solubility in water (in words) [2]: good solubility; solubility [2]: > 80 mM; potential at the peak oxidation current [4, 5]: −120 mV; potential at the peak reduction current [4, 5]: −180 mV; redox reaction with a glassy carbon electrode ([4]; cyclic voltammetry): quickly and reversibly; redox potential lower than that of potassium ferricyanide ([4]; difference to potassium ferricyanide): about 400 mV; redox potential [(Ered+Eox)/2] ([4]; vs Ag|AgCl): −150 mV
